Molecular target: P. falciparum apicoplast DNA polymerase (Pf-apPOL) (Plasmodium falciparum, UniProt Q8ILY1)
Assay: Fluorescence-based high-throughput DNA polymerase assay (molecular beacon), primary screen and dose-response
Assay type: biochemical
Conditions: for DNA Pol: 90 min, 10 µM; for % inhibition apPOL 180' 2.5 / % inhibition apPOL 180' 5 / % inhibition apPOL 180' 10 / % inhibition apPOL 180' 20 / % inhibition apPOL 180' 40 / % inhibition apPOL 180' 80: read at 180'
How it was run: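 Single-point screening used 10 µM compound with 20 nM polymerase, 20 nM hairpin substrate and 6 µM dNTPs for 90 min at 25 °C. Confirmatory titrations (2.5–80 µM) followed fluorescence at three times, and IC50 was derived from a fit including a cooperativity term n.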

[1] = "DNA Pol" of the 186 hits list (screen value)

Chain of P. falciparum apicoplast DNA polymerase (Pf-apPOL) (Q8ILY1 entry or part of it): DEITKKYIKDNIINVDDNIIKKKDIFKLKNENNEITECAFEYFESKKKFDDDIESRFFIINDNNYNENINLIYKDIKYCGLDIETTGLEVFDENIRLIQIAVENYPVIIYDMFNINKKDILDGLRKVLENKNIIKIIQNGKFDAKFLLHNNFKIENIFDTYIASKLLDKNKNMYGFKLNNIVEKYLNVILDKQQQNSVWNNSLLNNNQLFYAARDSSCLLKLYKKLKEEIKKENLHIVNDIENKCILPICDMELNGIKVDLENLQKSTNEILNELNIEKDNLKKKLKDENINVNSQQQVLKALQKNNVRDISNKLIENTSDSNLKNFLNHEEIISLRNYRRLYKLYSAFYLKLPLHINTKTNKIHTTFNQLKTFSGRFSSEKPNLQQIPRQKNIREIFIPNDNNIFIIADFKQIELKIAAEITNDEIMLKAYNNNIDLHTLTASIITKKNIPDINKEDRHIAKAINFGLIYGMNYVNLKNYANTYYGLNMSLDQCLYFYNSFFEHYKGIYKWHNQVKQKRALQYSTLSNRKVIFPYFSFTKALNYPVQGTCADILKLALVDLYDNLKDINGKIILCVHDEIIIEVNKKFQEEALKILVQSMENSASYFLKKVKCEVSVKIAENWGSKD

## CC(=O)c1cc2c(N)c(/C(N)=N/C#N)sc2nc1C [KU0015866]
'DNA Pol' of the 186 hits list (primary screen value)
  DNA Pol: 33
DNA Pol (primary screen value)
  DNA Pol: 33
DRC-1, concentration 2.5
  % inhibition Apo pol 10': 6.515%
  % inhibition Apol 90': -0.6957%
  % inhibition apPOL 180': -1.629%
DRC-1, concentration 5
  % inhibition Apo pol 10': 12.7693%
  % inhibition Apol 90': -1.631%
  % inhibition apPOL 180': -5.477%
DRC-1, concentration 10
  % inhibition Apo pol 10': 31.7983%
  % inhibition Apol 90': 8.506%
  % inhibition apPOL 180': 0.782%
DRC-1, concentration 20
  % inhibition Apo pol 10': 44.0355%
  % inhibition Apol 90': 14.7865%
  % inhibition apPOL 180': 3.3611%
DRC-1, concentration 40
  % inhibition Apo pol 10': 64.9344%
  % inhibition Apol 90': 35.058%
  % inhibition apPOL 180': 18.0593%
DRC-1, concentration 80
  % inhibition Apo pol 10': 81.2768%
  % inhibition Apol 90': 75.8739%
  % inhibition apPOL 180': 70.7811%
DRC-2, concentration 2.5
  % inhibition Apo pol 5': 7%
  % inhibition Apol 40': 6%
  % inhibition ApPOL 90': 4.51%
  % inhibition apPOL 180': -4.65%
DRC-2, concentration 5
  % inhibition Apo pol 5': 12%
  % inhibition Apol 40': 4.46%
  % inhibition ApPOL 90': 1.44%
  % inhibition apPOL 180': -9%
DRC-2, concentration 10
  % inhibition Apo pol 5': 28%
  % inhibition Apol 40': 19%
  % inhibition ApPOL 90': 14%
  % inhibition apPOL 180': -0.253%
DRC-2, concentration 20
  % inhibition Apo pol 5': 37%
  % inhibition Apol 40': 33%
  % inhibition ApPOL 90': 25%
  % inhibition apPOL 180': 10%
DRC-2, concentration 40
  % inhibition Apo pol 5': 40%
  % inhibition Apol 40': 48%
  % inhibition ApPOL 90': 45%
  % inhibition apPOL 180': 34%
DRC-2, concentration 80
  % inhibition Apo pol 5': 37%
  % inhibition Apol 40': 55%
  % inhibition ApPOL 90': 56%
  % inhibition apPOL 180': 54%

## O=C(CSc1nnc(-c2ccco2)[nH]1)c1ccc(Cl)cc1 [KU0029065]
[1]
  DNA Pol: 40
DRC-1, concentration 2.5
  % inhibition Apo pol 10': 25.2453%
  % inhibition Apol 90': 14.2802%
  % inhibition apPOL 180': 10.7111%
DRC-1, concentration 5
  % inhibition Apo pol 10': 33.7865%
  % inhibition Apol 90': 16.5602%
  % inhibition apPOL 180': 8.15%
DRC-1, concentration 10
  % inhibition Apo pol 10': 71.7651%
  % inhibition Apol 90': 48.3315%
  % inhibition apPOL 180': 30.1123%
DRC-1, concentration 20
  % inhibition Apo pol 10': 81.7468%
  % inhibition Apol 90': 65.2838%
  % inhibition apPOL 180': 47.4786%
DRC-1, concentration 40
  % inhibition Apo pol 10': 82.8592%
  % inhibition Apol 90': 75.799%
  % inhibition apPOL 180': 65.3498%
DRC-1, concentration 80
  % inhibition Apo pol 10': 73.082%
  % inhibition Apol 90': 79.1006%
  % inhibition apPOL 180': 74.7958%
DRC-2, concentration 2.5
  % inhibition Apo pol 5': -0.174%
  % inhibition Apol 40': 0.888%
  % inhibition ApPOL 90': 1.21%
  % inhibition apPOL 180': 0.33%
DRC-2, concentration 5
  % inhibition Apo pol 5': -0.717%
  % inhibition Apol 40': 0.406%
  % inhibition ApPOL 90': -0.831%
  % inhibition apPOL 180': -8%
DRC-2, concentration 10
  % inhibition Apo pol 5': 6%
  % inhibition Apol 40': 7%
  % inhibition ApPOL 90': 6%
  % inhibition apPOL 180': -2.67%
DRC-2, concentration 20
  % inhibition Apo pol 5': 26%
  % inhibition Apol 40': 17%
  % inhibition ApPOL 90': 23%
  % inhibition apPOL 180': 15%
DRC-2, concentration 40
  % inhibition Apo pol 5': -5.63%
  % inhibition Apol 40': 0.537%
  % inhibition ApPOL 90': -0.138%
  % inhibition apPOL 180': -5%
DRC-2, concentration 80
  % inhibition Apo pol 5': -27%
  % inhibition Apol 40': -50%
  % inhibition ApPOL 90': -49%
  % inhibition apPOL 180': -45%
Primary screen value, DNA Pol
  DNA Pol: 40

## COc1ccc(-c2n[nH]cc2Oc2ccc(Cl)cc2)c(O)c1 [KU0029837]
[1]
  DNA Pol: 54
DRC-1, concentration 2.5
  % inhibition Apo pol 10': 13.0965%
  % inhibition Apol 90': 6.836%
  % inhibition apPOL 180': 2.031%
DRC-1, concentration 5
  % inhibition Apo pol 10': 22.8396%
  % inhibition Apol 90': 14.8627%
  % inhibition apPOL 180': 3.615%
DRC-1, concentration 10
  % inhibition Apo pol 10': 52.0762%
  % inhibition Apol 90': 39.7229%
  % inhibition apPOL 180': 25.5956%
DRC-1, concentration 20
  % inhibition Apo pol 10': 64.1383%
  % inhibition Apol 90': 52.6198%
  % inhibition apPOL 180': 36.8517%
DRC-1, concentration 40
  % inhibition Apo pol 10': 82.54%
  % inhibition Apol 90': 73.85%
  % inhibition apPOL 180': 62.2191%
DRC-1, concentration 80
  % inhibition Apo pol 10': 88.9574%
  % inhibition Apol 90': 85.1708%
  % inhibition apPOL 180': 78.7822%
DRC-2, concentration 2.5
  % inhibition Apo pol 5': 15%
  % inhibition Apol 40': 15%
  % inhibition ApPOL 90': 13%
  % inhibition apPOL 180': 2.39%
DRC-2, concentration 5
  % inhibition Apo pol 5': 23%
  % inhibition Apol 40': 27%
  % inhibition ApPOL 90': 24%
  % inhibition apPOL 180': 13%
DRC-2, concentration 10
  % inhibition Apo pol 5': 39%
  % inhibition Apol 40': 46%
  % inhibition ApPOL 90': 44%
  % inhibition apPOL 180': 32%
DRC-2, concentration 20
  % inhibition Apo pol 5': 43%
  % inhibition Apol 40': 55%
  % inhibition ApPOL 90': 53%
  % inhibition apPOL 180': 43%
DRC-2, concentration 40
  % inhibition Apo pol 5': 51%
  % inhibition Apol 40': 69%
  % inhibition ApPOL 90': 71%
  % inhibition apPOL 180': 66%
DRC-2, concentration 80
  % inhibition Apo pol 5': 51%
  % inhibition Apol 40': 72%
  % inhibition ApPOL 90': 74%
  % inhibition apPOL 180': 74%
Primary screen value, DNA Pol
  DNA Pol: 54

## Nc1cc(Oc2ccc(O)c(N)c2)ccc1O [KU0034728]
186 hits, DNA Pol (screen value), unit not given
  DNA Pol: 65
'DNA Pol' (screen value), unit not given
  DNA Pol: 65
DRC-1, read at 10', concentration 2.5
  % inhibition Apo pol 10' 2.5: 19.846%
DRC-1, read at 10', concentration 5
  % inhibition Apo pol 10' 5: 31.2811%
DRC-1, read at 10', concentration 10
  % inhibition Apo pol 10' 10: 55.4709%
DRC-1, read at 10', concentration 20
  % inhibition Apo pol 10' 20: 70.5604%
DRC-1, read at 10', concentration 40
  % inhibition Apo pol 10' 40: 80.3003%
DRC-1, read at 10', concentration 80
  % inhibition Apo pol 10' 80: 87.2374%
DRC-1, read at 90', concentration 2.5
  % inhibition Apol 90' 2.5: 8.186%
DRC-1, read at 90', concentration 5
  % inhibition Apol 90' 5: 16.785%
DRC-1, read at 90', concentration 10
  % inhibition Apol 90' 10: 34.847%
DRC-1, read at 90', concentration 20
  % inhibition Apol 90' 20: 48.9946%
DRC-1, read at 90', concentration 40
  % inhibition Apol 90' 40: 59.758%
DRC-1, read at 90', concentration 80
  % inhibition Apol 90' 80: 68.9049%
DRC-1, concentration 2.5
  % inhibition apPOL 180' 2.5: 2.338%
DRC-1, concentration 5
  % inhibition apPOL 180' 5: 7.101%
DRC-1, concentration 10
  % inhibition apPOL 180' 10: 22.2951%
DRC-1, concentration 20
  % inhibition apPOL 180' 20: 34.6321%
DRC-1, concentration 40
  % inhibition apPOL 180' 40: 46.6312%
DRC-1, concentration 80
  % inhibition apPOL 180' 80: 55.3391%
DRC-2, concentration 5
  % inhibition Apo pol 5': 43%
  % inhibition apPOL 180' 5: 26%
DRC-2, concentration 20
  % inhibition Apol 40': 65%
  % inhibition ApPOL 90': 65%
  % inhibition apPOL 180' 20: 59%
DRC-2, concentration 40
  % inhibition Apol 40': 74%
  % inhibition apPOL 180': 74%
  % inhibition apPOL 180' 40: 74%
DRC-2, concentration 2.5
  % inhibition ApPOL 90': 43%
  % inhibition apPOL 180' 2.5: 31%
DRC-2, concentration 10
  % inhibition apPOL 180': 43%
  % inhibition apPOL 180' 10: 43%
DRC-2, read at 5', concentration 2.5
  % inhibition Apo pol 5' 2.5: 42%
DRC-2, read at 5', concentration 5
  % inhibition Apo pol 5' 5: 43%
DRC-2, read at 5', concentration 10
  % inhibition Apo pol 5' 10: 50%
DRC-2, read at 5', concentration 20
  % inhibition Apo pol 5' 20: 52%
DRC-2, read at 5', concentration 40
  % inhibition Apo pol 5' 40: 56%
DRC-2, read at 5', concentration 80
  % inhibition Apo pol 5' 80: 30%
DRC-2, read at 40', concentration 2.5
  % inhibition Apol 40' 2.5: 47%
DRC-2, read at 40', concentration 5
  % inhibition Apol 40' 5: 44%
DRC-2, read at 40', concentration 10
  % inhibition Apol 40' 10: 57%
DRC-2, read at 40', concentration 20
  % inhibition Apol 40' 20: 65%
DRC-2, read at 40', concentration 40
  % inhibition Apol 40' 40: 74%
DRC-2, read at 40', concentration 80
  % inhibition Apol 40' 80: 64%
DRC-2, read at 90', concentration 2.5
  % inhibition ApPOL 90' 2.5: 43%
DRC-2, read at 90', concentration 5
  % inhibition ApPOL 90' 5: 40%
DRC-2, read at 90', concentration 10
  % inhibition ApPOL 90' 10: 55%
DRC-2, read at 90', concentration 20
  % inhibition ApPOL 90' 20: 65%
DRC-2, read at 90', concentration 40
  % inhibition ApPOL 90' 40: 76%
DRC-2, read at 90', concentration 80
  % inhibition ApPOL 90' 80: 71%
DRC-2, concentration 80
  % inhibition apPOL 180' 80: 75%
